Values quoted from earlier work in patent EP1110914A2, “Water treatment method and apparatus” (ROHM AND HAAS COMPANY, priority 1999, dated 2001).
Where two headings read alike, the source gives them in different places.

Conditions: in water

## O=C=O [CO2, carbon dioxide]
Pressure 101 kPa (1 bar)
  CO2 Conc @ 15° C: 2,523 ppm
  CO2 Conc @ 20° C: 2,174 ppm
  CO2 Conc @ 25° C: 1,876 ppm
Pressure 507 kPa (5 bar)
  CO2 Conc @ 15° C: 12,613 ppm
  CO2 Conc @ 20° C: 10,868 ppm
  CO2 Conc @ 25° C: 9,381 ppm
Pressure 931 kPa (9.2 bar)
  CO2 Conc @ 15° C: 23,207 ppm
  CO2 Conc @ 20° C: 19,996 ppm
  CO2 Conc @ 25° C: 17,261 ppm
